{
  "source": "patent US20260285903A1",
  "about": "“SYNTHESIZED BIOLOGICALLY ACTIVE COMPOUNDS AND METHODS OF MAKING AND USING” (Georgia State University Research Foundation, Inc., priority 2023, published 2026)",
  "key": {"Tester strain TA98": {"system": "Tester strain TA98", "assay": "Ames test (bacterial reverse mutation), strain TA98", "type": "cell-based, Salmonella typhimurium", "conditions": "TA98, all tested concentrations", "description": "The mutagenic potential of M13 was assessed using the Ames test. The Ames test, or bacterial reverse mutation test, introduced by Bruce Ames and his group in the early 1970s, is currently widely employed to assess the mutagenic potential of chemical compounds. In this biological assay, several strains of Salmonella ryphimurium carrying mutations in genes responsible for histidine synthesis are used, so these strains cannot produce this critical amino acid. […]\nM13 at concentrations of […] and positive (NaN3; 2-nitrofluorene (NF) and 2-amonoanthracene) and negative (PBS) controls were tested on two tester strains; TA98 reverted from histidine dependence (auxotrophy) to histidine independence (prototrophy) by frameshift mutagens and tester TA100 reverted by mutagens that cause both frameshift and base pair substitution mutations. The colony numbers on the negative, positive control and M13 treated plates were determined by manual counting. The mean number of revertants per plate, the standard deviation, and the mutation factor (i.e., mean number of revertants on the test item plate/mean number of revertants on the vehicle plate) were calculated.\nNext, the mutagenic potential of M13 using a Salmonella typhimurium reverse mutation assay were assessed (Ames test). […]"}, "[1]": {"system": "cell cycle control/phosphorylation proteins", "assay": "Cell Cycle Control Phospho Antibody Array on Caco-2/BBe cell lysates", "type": "cell-based, human", "conditions": "24 hours", "description": "The mechanism by which M13 exerts its anti-cancer effects was explored. Cell lysates of Caco-2/BBe cells incubated for 24 hours with free M13, NL, or M13-NL were hybridized on cancer-related protein array membranes (Proteome Profiler™ Human XL Oncology Array), and cell cycle control/phosphorylation profiling protein antibody microarray slides (Cell Cycle Control Phospho Antibody Array)."}, "[2]": {"assay": "Single-dose maximum tolerated dose (MTD) general toxicity study", "type": "in vivo, CD-1 mice", "description": "A general toxicity study was performed by using maximum tolerated dose (MTD) of M13. Eight-week old mice were orally administered 1000 mg/kg or with PBS. On day one and day 7, mice were examined for weight loss and clinical scores were noted. Clinical signs were scored by assessing activity, appearance, and body condition for seven days.\nTo further determine the potential acute toxicity of M13 in vivo, a single-dose maximum tolerated dose (MTD) study of M13 was performed in CD-1 mice. Eight-week-old female mice were orally administered a single dose of M13 (1000 mg/kg) or PBS (as control) on day 0 and subjected to regular water and diet for 7 days."}, "25 selected targets": {"system": "25 selected targets", "assay": "In vitro evaluation of safety and toxicity (InVEST) screening", "description": "Safety screening of M13 was performed using an in vitro evaluation of safety and toxicity (InVEST). The effects of M13 was tested against 25 selected targets, including factors known to be involved in toxicity in humans."}, "SARS-CoV-2": {"system": "SARS-CoV-2", "assay": "SARS-CoV-2 infectivity IF assay (Nucleocapsid staining) in Vero cells", "type": "cell-based", "conditions": "Vero cells pre-incubated 60 minutes prior to infection, 24 hours, read-out: EC50 antiviral activity against SARS-CoV-2", "description": "Cells were seeded in complete media at 8000 cells/100 μl/well in four plates: two for the cytotoxicity assay and two for the infectivity assay. After seeding, the plates were incubated at room temperature for 5 minutes for even distribution, and then at 37° C., 5% CO2 until the following day.\nFormulations were prepared at twice the final concentration, and they were diluted to the final desired concentration by an equal volume of virus or media. The initial amounts weighted and the volume in which these were resuspended are recorded.\nThe prepared stocks (0.5 mg/ml) were diluted in 800 μl of infection media to twice the final drug concentration (200 μM). […]\nResidual formaldehyde was quenched with 50 mM Ammonium Chloride, after which cells were permeabilized (0.1% Triton X 100) and stained with an antibody recognizing SARS-CoV2 Nucleocapsid protein (Thermo Fisher MA536271). The primary antibody was detected with an Alexa-488 conjugate secondary antibody (Life Technologies, A21207), and nuclei were stained with Hoechst. Images were acquired on a Cell-Insight CX5 high content platform (Thermo Scientific) using a 4× objective, and percentage infection calculated using CellInsight CX5 software (infected cells/total cells×100).\nNormalized percentages of inhibition were calculated using the following formula: […]"}, "human T lymphocytes": {"system": "human T lymphocytes", "assay": "Immunogenic effects on T lymphocytes in cultured PBMCs (flow cytometry)", "type": "cell-based", "conditions": "20 μM, 4-day, vs SC and standard control", "description": "PBMCs were provided by STEMCELL Technologies (STEMCELL Canada Inc.) and maintained in ImmunoCult™-XF T-cell Expansion Medium (Cat #10981). HIEC-6 cells were maintained in OptiMEM 1 Reduced Serum Medium supplemented with 20 mM HEPES, 10 mM GlutaMAX, 10 ng/mL Epidermal Growth Factor, 4% (v/v) fetal bovine serum (FBS), and 1% penicillin-streptomycin (PS). HCT-116 cells were maintained in ATCC-formulated McCoy's 5a medium, supplemented with 10% (v/v) FBS and 1% PS. Caco-2/BBe cells were grown in DMEM supplemented with 10% (v/v) FBS and 1% PS (v/v). Human colon cancer stem cells (HC-CSC) were maintained in complete growth media with serum and antibiotics (Cat #M36112-39S) from Celprogen Inc. (Torrance, CA, USA).\nTo evaluate the immunogenic effects of M13 on human T lymphocytes, PBMCs were cultured in blank medium (standard control), medium containing CD3/CD28 activator (positive control), medium containing solvent (solvent control, SC), and medium containing M13 solution (20 μM). All the groups were cultured in the presence or absence of interleukin-2 (IL-2). After a 4-day incubation, PBMCs were labeled with immunofluorescent dyes and analyzed using flow cytometry."}, "[3]": {"conditions": "CD-1 mice, single oral dose 1000 mg/kg, day 7"}},
  "note": "Entries after “also recorded” stand apart in the source; their conditions may differ. Read-outs that look alike come from different tables or passages of the source.",
  "data": [
    {"smiles": "CCCCCC(CC(=O)CCc1ccc(O)c(OC)c1)SCC(NC(=O)CCC(N)C(=O)O)C(=O)NCC(=O)O", "note": "(stereo not drawn) [M13, 5-glutathione-6-shogaol]", "values": [
      {"measurement": "revertant colony numbers", "setting": "Tester strain TA98", "value": "did not demonstrate an increase in revertant colony numbers; also recorded: did not increase the number of revertant colonies"},
      {"measurement": "CDC25A and phosphorylated CDC25A (p-CDC25A) vs control and NL groups", "setting": "[1]", "value": "down-regulated"},
      {"measurement": "death or differences in physiological indices", "setting": "[2]; CD-1 mice, single oral dose 1000 mg/kg, 7 days, vs PBS", "value": "no significant death or differences"},
      {"measurement": "body weight change, spleen-to-body weight ratio, blood physiological and biochemical indices", "setting": "[2]; [3]", "value": "no significant difference"},
      {"measurement": "pathological signs in the anatomical organs", "setting": "[2]; [3]", "value": "no pathological signs"},
      {"measurement": "MTD at 168 h", "setting": "[2]; mouse, in vivo, single-dose oral, mice", "value": "> 1000", "unit": "mg/kg"},
      {"measurement": "weight loss and clinical signs", "setting": "[2]; oral 1000 mg/kg, seven days of observation, vs PBS", "value": "No significant changes"},
      {"measurement": "white blood cell number, red blood cell number, hemoglobin levels, parameters of hepatic or renal function", "setting": "[2]; oral 1000 mg/kg, vs PBS", "value": "no significant differences"},
      {"measurement": "effect on the activities of 25 assorted targets from five target classes", "setting": "25 selected targets", "value": "did not have any significant effect"},
      {"measurement": "inhibition of GPCR targets, ion channel (5-HT3), phosphodiesterase, protease thrombin alpha", "setting": "25 selected targets", "value": "did not inhibit"},
      {"measurement": "modulation of the activity of the nuclear receptor AHR", "setting": "25 selected targets", "value": "did not significantly modulate"},
      {"measurement": "EC50", "setting": "SARS-CoV-2; Severe acute respiratory syndrome coronavirus 2, Vero", "value": "~36", "unit": "µM"},
      {"measurement": "EC50", "setting": "SARS-CoV-2", "value": 35.8, "unit": "µM"},
      {"measurement": "proliferation of activated CD4+ and CD8+ lymphocytes", "setting": "human T lymphocytes; activated-stage (with IL-2)", "value": "reduced proliferation"},
      {"measurement": "percentages of CD4+ and CD8+ T-cell populations and T-cell proliferation status", "setting": "human T lymphocytes; resting-stage (without IL-2)", "value": "similar"}
    ]}
  ]
}
